Tested on: Spodoptera littoralis
Assay: Insecticidal activity against Spodoptera littoralis larvae assessed per gram of fresh weight of diet administered through artificial diet measured after 6 days
Format: functional, organism-based

SMILES	EC50
CCCCCCCCCCCC(=O)Oc1c(-c2c(C)cc(OC)c3c(OC)cccc23)ccc2c1[C@@H](C)N(C=O)[C@H](C)C2	> 750 µg/g
COc1cccc2c(-c3ccc4c(c3OCc3ccc([N+](=O)[O-])cc3)[C@@H](C)N[C@H](C)C4)c(C)cc(OC)c12	25.6 µg/g
COc1cccc2c(-c3ccc4c(c3OCc3ccc(Cl)cc3)[C@@H](C)N[C@H](C)C4)c(C)cc(OC)c12	16.4 µg/g
COc1cccc2c(-c3ccc4c(c3OCc3ccc(C(F)(F)F)cc3)[C@@H](C)N[C@H](C)C4)c(C)cc(OC)c12	35.1 µg/g
COc1c(-c2c(C)cc(OC)c3c(OC)cccc23)ccc2c1[C@@H](C)N(C=O)[C@H](C)C2	171 µg/g
COc1cccc2c(-c3ccc4c(c3OCc3ccc(Br)cc3)[C@@H](C)N[C@H](C)C4)c(C)cc(OC)c12	15.6 µg/g
COc1cccc2c(-c3ccc4c(c3O)[C@@H](C)N(C)[C@H](C)C4)c(C)cc(OC)c12	377 µg/g
COc1cccc2c(-c3cc(Br)c4c(c3O)[C@@H](C)N[C@H](C)C4)c(C)cc(OC)c12 [5-BROMODIONCOPHYLLINE A]	193 µg/g
COc1cccc2c(-c3ccc4c(c3OC(C)=O)[C@@H](C)N(C=O)[C@H](C)C4)c(C)cc(OC)c12 [8-O-ACETYL-N-FORMYLDIONCOPHYLLINE A]	361 µg/g
COc1cccc2c(-c3ccc4c(c3OC(=O)c3ccccc3)[C@@H](C)N(C=O)[C@H](C)C4)c(C)cc(OC)c12 [8-O-BENZOYL-N-FORMYLDIONCOPHYLLINE A]	132 µg/g
COc1cccc2c(-c3ccc4c(c3OCc3ccccc3)[C@@H](C)N(C=O)[C@H](C)C4)c(C)cc(OC)c12 [8-O-BENZYL-N-FORMYLDIONCOPHYLLINE A]	67.1 µg/g
COc1cccc2c(-c3ccc4c(c3OCc3ccccc3)[C@@H](C)N[C@H](C)C4)c(C)cc(OC)c12 [8-O-BENZYLDIONCOPHYLLINE A]	27.1 µg/g
COc1cccc2c(-c3ccc4c(c3OC(C)C)[C@@H](C)N[C@H](C)C4)c(C)cc(OC)c12 [8-O-ISOPROPYLDIONCOPHYLLINE A]	94.1 µg/g
CCCCOc1c(-c2c(C)cc(OC)c3c(OC)cccc23)ccc2c1[C@@H](C)N(C=O)[C@H](C)C2 [8-O-N-BUTYL-N-FORMYLDIONCOPHYLLINE A]	182 µg/g
COc1cccc2c(-c3ccc4c(c3O)[C@@H](C)N[C@H](C)C4)c(C)cc(OC)c12 [DIONCOPHYLLINE A]	277 µg/g
COc1cccc2c(-c3ccc4c(c3OC(C)=O)[C@@H](C)N(C(C)=O)[C@H](C)C4)c(C)cc(OC)c12 [N-ACETYL-8-O-ACETYLDIONCOPHYLLINE A]	331 µg/g
COc1cccc2c(-c3ccc4c(c3O)[C@@H](C)N(C(C)=O)[C@H](C)C4)c(C)cc(OC)c12 [N-ACETYLDIONCOPHYLLINE A]	291 µg/g
COc1cccc2c(-c3ccc4c(c3OC(C)C)[C@@H](C)N(C=O)[C@H](C)C4)c(C)cc(OC)c12 [N-FORMYL-8-O-ISOPROPYLDIONCOPHYLLINE A]	130 µg/g
COc1cccc2c(-c3ccc4c(c3OC(=O)C(C)(C)C)[C@@H](C)N(C=O)[C@H](C)C4)c(C)cc(OC)c12 [N-FORMYL-8-O-PIVALOYLDIONCOPHYLLINE A]	333 µg/g
COc1cccc2c(-c3ccc4c(c3O)[C@@H](C)N(C=O)[C@H](C)C4)c(C)cc(OC)c12 [N-FORMYLDIONCOPHYLLINE A]	454 µg/g
